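All cell lines were grown in 96-well plates and treated with compound for 48 hours. Abbreviation: GI50, concentration required for 50% inhibition of growth.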 Activity calls are given as the source filed them. Rule as the data show it: active = GI50 up to about 1.1 µM and inactive = higher.
Columns and labels:
Experiment in all cases: growth of human tumour cells (NCI), 48 h
KM12 = system: KM12
K562 = system: K562
KM-20L2 = system: KM-20L2
SF-539 = system: SF-539
OVCAR-5 = system: OVCAR-5
RXF 631 = system: RXF 631
SK-MEL-28 = system: SK-MEL-28
U-251 = system: U-251
NCI-H23 = system: NCI-H23
ACHN = system: ACHN
LXFL 529 = system: LXFL 529
COLO 205 = system: COLO 205
SW-620 = system: SW-620
HCC 2998 = system: HCC 2998
HCT-116 = system: HCT-116
UACC-257 = system: UACC-257
SF-295 = system: SF-295
SNB-78 = system: SNB-78
MOLT-4 = system: MOLT-4
CCRF-CEM = system: CCRF-CEM
M14 = system: M14
TK-10 = system: TK-10
HOP-92 = system: HOP-92
LOX IMVI = system: LOX IMVI
SR = system: SR
IGROV-1 = system: IGROV-1
SF-268 = system: SF-268
XF498 = system: XF498
SNB-19 = system: SNB-19
HCT-15 = system: HCT-15
CAKI-1 = system: CAKI-1
RPMI-8226 = system: RPMI-8226
OVCAR-4 = system: OVCAR-4
A549 = system: A549
A498 = system: A498
UACC-62 = system: UACC-62
NCI-H522 = system: NCI-H522
DLD-1 = system: DLD-1
DMS-114 = system: DMS-114
SN12C = system: SN12C
OVCAR-8 = system: OVCAR-8
SK-OV-3 = system: SK-OV-3
SK-MEL-5 = system: SK-MEL-5
HOP-62 = system: HOP-62
SNB-75 = system: SNB-75
UO-31 = system: UO-31
DMS-273 = system: DMS-273
HL-60 = system: HL-60
NCI-H460 = system: NCI-H460
HT-29 = system: HT-29
EKVX = system: EKVX
RXF 393 = system: RXF 393
SK-MEL-2 = system: SK-MEL-2
M19-MEL = system: M19-MEL
NCI-H226 = system: NCI-H226
786-0 = system: 786-0
OVCAR-3 = system: OVCAR-3
HOP-18 = system: HOP-18
Malme-3M = system: Malme-3M

COc1ccc(OC)c(NC(=O)C(=O)C(C(=O)c2ccccc2F)C2OC(=O)c3ccccc32)c1 (configuration not stated)
GI50 (KM12): > 100 µM (inactive) | GI50 (K562): 42.8 µM (inactive) | GI50 (KM-20L2): 51.9 µM (inactive) | GI50 (SF-539): 26.9 µM (inactive) | GI50 (OVCAR-5): 79.4 µM (inactive) | GI50 (RXF 631): 34.7 µM (inactive) | GI50 (SK-MEL-28): 39.7 µM (inactive) | GI50 (U-251): 19.1 µM (inactive) | GI50 (NCI-H23): 57.1 µM (inactive) | GI50 (ACHN): 82.6 µM (inactive) | GI50 (LXFL 529): 77.3 µM (inactive) | GI50 (COLO 205): 48.3 µM (inactive) | GI50 (SW-620): 49.2 µM (inactive) | GI50 (HCC 2998): 44.8 µM (inactive) | GI50 (HCT-116): 37.3 µM (inactive) | GI50 (UACC-257): > 100 µM (inactive) | GI50 (SF-295): 45.8 µM (inactive) | GI50 (SNB-78): 36.8 µM (inactive) | GI50 (MOLT-4): 26.3 µM (inactive) | GI50 (CCRF-CEM): 21.8 µM (inactive) | GI50 (M14): > 100 µM (inactive) | GI50 (TK-10): > 100 µM (inactive) | GI50 (HOP-92): > 100 µM (inactive) | GI50 (LOX IMVI): 25.2 µM (inactive) | GI50 (SR): 23.5 µM (inactive) | GI50 (IGROV-1): 89.3 µM (inactive) | GI50 (SF-268): 22.8 µM (inactive) | GI50 (XF498): 34.8 µM (inactive) | GI50 (SNB-19): 36 µM (inactive) | GI50 (HCT-15): 62.5 µM | GI50 (CAKI-1): 67.8 µM (inactive) | GI50 (RPMI-8226): 32.4 µM (inactive) | GI50 (OVCAR-4): 66.8 µM (inactive) | GI50 (A549): 71.1 µM (inactive) | GI50 (A498): > 100 µM (inactive) | GI50 (UACC-62): 36.4 µM (inactive) | GI50 (NCI-H522): 23.5 µM (inactive) | GI50 (DLD-1): 42 µM (inactive) | GI50 (DMS-114): 20.8 µM (inactive) | GI50 (SN12C): 35.9 µM (inactive) | GI50 (OVCAR-8): 35.1 µM (inactive) | GI50 (SK-OV-3): 59.4 µM (inactive) | GI50 (SK-MEL-5): 79.1 µM (inactive) | GI50 (HOP-62): 50.2 µM (inactive) | GI50 (SNB-75): 39.7 µM (inactive) | GI50 (UO-31): 50.6 µM (inactive) | GI50 (DMS-273): 30.6 µM (inactive) | GI50 (HL-60): 34.8 µM (inactive) | GI50 (NCI-H460): 44.8 µM (inactive) | GI50 (HT-29): 45.5 µM (inactive) | GI50 (EKVX): 62.2 µM (inactive) | GI50 (RXF 393): 25.5 µM (inactive) | GI50 (SK-MEL-2): 43.1 µM (inactive) | GI50 (M19-MEL): 29.1 µM (inactive) | GI50 (NCI-H226): 16.6 µM (inactive)

C[C@]12CC[C@H](OCCC#N)CC1=CC[C@@H]1C2CC[C@]2(C)/C(=N/OCCC#N)CCC12 (some centres not stated)
GI50 (KM12): > 100 µM (inactive) | GI50 (K562): > 22.4 µM (inactive) | GI50 (KM-20L2): > 100 µM (inactive) | GI50 (SF-539): 55 µM (inactive) | GI50 (OVCAR-5): > 100 µM (inactive) | GI50 (SK-MEL-28): > 74.6 µM (inactive) | GI50 (U-251): 24.8 µM (inactive) | GI50 (NCI-H23): 10.8 µM (inactive) | GI50 (ACHN): 16.7 µM (inactive) | GI50 (LXFL 529): > 74.6 µM (inactive) | GI50 (COLO 205): > 100 µM (inactive) | GI50 (SW-620): > 100 µM (inactive) | GI50 (HCC 2998): > 100 µM (inactive) | GI50 (HCT-116): > 21 µM (inactive) | GI50 (UACC-257): 6.62 µM (inactive) | GI50 (SF-295): 17.2 µM (inactive) | GI50 (SNB-78): 22.8 µM (inactive) | GI50 (MOLT-4): > 100 µM (inactive) | GI50 (CCRF-CEM): > 100 µM (inactive) | GI50 (M14): 38.3 µM (inactive) | GI50 (TK-10): > 44.4 µM (inactive) | GI50 (HOP-92): 14.3 µM (inactive) | GI50 (LOX IMVI): 5.7 µM (inactive) | GI50 (SR): 4.43 µM (inactive) | GI50 (IGROV-1): > 100 µM (inactive) | GI50 (SF-268): > 100 µM (inactive) | GI50 (XF498): 3.4 µM (inactive) | GI50 (SNB-19): 36.6 µM (inactive) | GI50 (HCT-15): > 100 µM | GI50 (CAKI-1): 26.1 µM (inactive) | GI50 (RPMI-8226): > 100 µM (inactive) | GI50 (OVCAR-4): 29 µM (inactive) | GI50 (A549): 31.3 µM (inactive) | GI50 (A498): > 100 µM (inactive) | GI50 (UACC-62): 21.9 µM (inactive) | GI50 (NCI-H522): 20.9 µM (inactive) | GI50 (786-0): 33 µM (inactive) | GI50 (DLD-1): > 100 µM (inactive) | GI50 (DMS-114): 5.12 µM (inactive) | GI50 (SN12C): > 100 µM (inactive) | GI50 (OVCAR-8): > 92.7 µM (inactive) | GI50 (SK-OV-3): > 63 µM (inactive) | GI50 (SK-MEL-5): > 21 µM (inactive) | GI50 (HOP-62): > 69.2 µM (inactive) | GI50 (SNB-75): 28.1 µM (inactive) | GI50 (OVCAR-3): > 21 µM (inactive) | GI50 (UO-31): > 100 µM (inactive) | GI50 (HOP-18): > 100 µM (inactive) | GI50 (DMS-273): 42.2 µM (inactive) | GI50 (HL-60): 2.48 µM (inactive) | GI50 (NCI-H460): 97.7 µM (inactive) | GI50 (Malme-3M): 30.1 µM (inactive) | GI50 (EKVX): > 94.8 µM (inactive) | GI50 (RXF 393): 25.4 µM (inactive) | GI50 (SK-MEL-2): > 50.2 µM (inactive) | GI50 (M19-MEL): > 100 µM (inactive) | GI50 (NCI-H226): > 100 µM (inactive)
